The text below walks through data of patent US20230365626A1, “Alloferon Peptide and Method Using the Same” (Industry Academy Cooperation Foundation of Sejong University, priority 2020, published 2023).

Square brackets hold non-standard residues; d marks the D form. Ends that are not written are not given here. Peptide text beside a SMILES is read from it.

The subject of series [1] is β-amyloid aggregates (Aβ aggregates). The experiment in a line: β-amyloid 1-42 protein aggregates in transfected 293T cells. It counts as cell-based. As to the method:
(§1) In addition, in this study, H4 cell line (GL-H4) and 293T cell line in which the GFP-LC3 plasmid was permanently infected were used. As a cell culture medium, 10% fetal bovine serum (Hyclone, USA) and a mixture solution of antibiotics and antifungal agents (WellGene, South Korea) were added to Minimum Essential Medium (MEM, WellGene) and incubated in a cell incubator in which the conditions of 37° C. and 5% CO2 were maintained.
(§2) In the pre-preparation process, 10-12 days after cell culture, the culture medium of the cerebral cortex nerve cells was changed to a minimum essential medium (MEM, Gibco, USA) without adding serum, and then was treated with N,N,N′,N′-tetrakis(2-pyridylmethyl)ethylene-diamine (TPEN, 2 μM, Sigma, USA), which is a zinc chelator, 50 μM chloroquine (CQ), 100 nM bafilomycin A-1 (Baf-A1), 500 μM methyl-beta-cyclodextrin (MβCD), and 2 μM chloropromazine (CP). Here, the MβCD is a caveolin-mediated endocytosis inhibitor, and CP is a clathrin-mediated endocytosis inhibitor. In addition, in the cell line experiments, the medium was changed to MEM according to the purpose of the experiments and was then treated with 40 μM chloroquine (CQ) and 100 nM bafilomycin A-1 (Baf-A1). During the pre-preparation process, the medium was treated with alloferon D-form peptides (0.2, 2, or 20 μM), free zinc (25 μM), TPEN (1 μM), and the like separately or together according to the purpose of each experiment.
Subsequently, the present inventors investigated whether alloferon may dissolve the β-amyloid aggregates (Aβ aggregates) generated after the transient transfection of β-amyloid 1-42 (Aβ1-42) into 293T cell lines. To this end, EGFP-tagged 1-42Aβ (pEGFP-C1-Abeta 1-42) DNA was transiently transfected into 293T cell lines using Lipofectamine2000. For cell observation, GFP signals were analyzed through a fluorescence microscope, and ImageJ was used for size and number analysis of GFP-positive aggregates. pEGFP-C1-Abeta 1-42 DNA was purchased from Addgene. Western blot analysis was performed in the same manner as in Example 5, except that anti-6E10-antibodies (Biolegend, USA) were used as the antibodies (FIG. 7).

The subject of series [2] is Huntington protein aggregates (Htt aggregates). The experiment in a line: Mutant Huntington protein aggregates in transfected 293T cells. The format is cell-based. As for the experimental part:
as §1, §2
Subsequently, the present inventors investigated whether alloferon may dissolve Huntington protein aggregates (Htt aggregates) generated after the transient transfection of mutant Huntington protein (mt-Htt) into 293T cell lines. To this end, GFP-tagged Huntington Q74 (GFP-mHttQ74) DNA was transiently transfected into 293T cell lines using Lipofectamine2000. For cell observation, GFP signals were analyzed through a fluorescence microscope, and ImageJ was used for size and number analysis of GFP-positive aggregates (FIG. 8A). GFP-mHttQ74 DNA was provided by Dr. David C. Rubinsztein of the University of Cambridge, England (Park et al., Neurobiol. Dis. 42: 242-251, 2011). […]

Series [3] concerns cortical nerve cells. The experiment in a line: Mechanism of action: receptor-mediated endocytosis, p62/LC3 western blot with Baf-A1. The format is cell-based, ICR mouse. To be noted: inhibitor administered alone (500 μM MβCD or 2 μM CP) with Baf-A1 + 20 μM peptide (FIG. 9B). As to the method: as §2
Since the protein cannot pass through the cell membrane, the present inventors thought that the alloferon D-form peptides would be introduced through an endocytosis process. Thus, the present inventors investigated whether the alloferon D-form peptides act through a receptor-mediated endocytosis process. […]

The subject of the next series is H4 cell line (GL-H4). The experiment in a line: LC3-GFP puncta, autophagic flux blocked by chloroquine (fluorescence microscopy). The format is cell-based. To be noted: 50 μM CQ alone. As for the experimental part: In addition, in this study, H4 cell line (GL-H4) and 293T cell line in which the GFP-LC3 plasmid was permanently infected were used. As a cell culture medium, 10% fetal bovine serum (Hyclone, USA) and a mixture solution of antibiotics and antifungal agents ([…], South Korea) were added to Minimum Essential Medium ([…]) and incubated in a cell incubator in which the conditions of 37° C. and 5% CO2 were maintained. […] Here, the MβCD is a caveolin-mediated endocytosis inhibitor, and CP is a clathrin-mediated endocytosis inhibitor. In addition, in the cell line experiments, the medium was changed to MEM according to the purpose of the experiments and was then treated with 40 μM chloroquine (CQ) and 100 nM bafilomycin A-1 (Baf-A1). During the pre-preparation process, the medium was treated with alloferon D-form peptides (0.2, 2, or 20 μM), free zinc (25 μM), TPEN (1 μM), and the like separately or together according to the purpose of each experiment. […] Protein quantification was performed using BCA protein assay kit (Pierce Biotechnology, USA). Then, 5× sample buffer (300 mM Tris, pH 6.8, 10% SDS, 50% glycerol, 0.1% BPB, 2.5% mercaptoethanol, and 100 mM DTT) was mixed with a quantified sample and denatured at 95° C. for 5 minutes to prepare the sample. […]

The subject of series [4] is cortical nerve cells. The experiment in a line: Lysotracker staining (lysosomal pH). The format is cell-based, ICR mouse. The text has this:
The cerebral cortex nerve cells of the mice were obtained by extracting the cerebrum from ICR mouse embryos of 13-14 day gestation. 6-7 hemispheres per culture dish were inoculated on 24-well culture dishes or 6-well culture dishes (SPL Life Science, South Korea) coated with 0.01% poly-D-lysine (Sigma, USA) prepared in advance. […]
Since it was confirmed through FIG. 2 that alloferon may promote the autophagic flux, whether the alloferon D-form peptides are involved in pH change in the lysosome was confirmed through lysotracker staining. […] It means that the stronger the fluorescence intensity, the lower the pH, and the weaker the fluorescence intensity, the higher the pH. It was confirmed that the pH in the lysosome was lowered by only the treatment with the alloferon D-form peptides compared to the control (FIG. 3A), and when treatment with 50 μM CQ was performed, the fluorescence intensity decreased compared to the control, and this was recovered by the treatment with the alloferon D-form peptides and zinc (FIG. 3B). […]

The test system of the next series is IL-6. The experiment in a line: Plasma cytokine ELISA after intraperitoneal injection. It counts as in vivo, mice. To be noted: 0.5, 2, 8, and 16 mg/kg intraperitoneally, after 1 hour. For orientation: An ELISA detects its analyte on a solid surface through an enzyme-linked reagent.
The nature of series [5]: Body weight change during intraperitoneal administration. The settings on record: 16 mg/kg intraperitoneal, 14 weeks (FIG. 10C). The format is in vivo, mice.
The test system of a further series is TNF-α. The settings on record: 0.5, 2, 8, and 16 mg/kg intraperitoneally, after 1 hour.
Series [6] can be described thus: In vitro plasma stability analysis (LC / mass spectrometry).
Experimental: In vitro plasma stability analysis was performed in order to compare the stability of L-form peptides and D-form peptides of the alloferon in the plasma of mice. […] The 10 μM alloferon L-form and D-form peptides were put into 100 μL of plasma, respectively, and then allowed to stand at 37° C. for 0, 5, 10, 30, 60, and 90 minutes. Thereafter, 500 μL of cold methanol was added thereto to precipitate proteins, and the proteins were lyophilized, followed by liquid chromatography and protein mass spectrometry.
[7] abbreviates: 100 nM bafilomycin A1 alone, 12 hours.
The mark [8] stands for this setting: treatment alone, without Baf-A1.

Experimental for IL-6: (§3) Specifically, the alloferon D-form peptides were intraperitoneally injected at 0.5, 2, 8, and 16 mg/kg, and after 1 hour, blood was collected from the retro-orbital plexus of the mice. The collected blood was centrifuged at 2,000 g at 4° C. for 20 minutes using a centrifuge, and then only the supernatant was taken to obtain plasma. Thereafter, an experiment was performed using TNF-α and IL-6 Elisa kit (RayBiotech, USA). Specifically, 100 μL of plasma sample was put into a 96-well microplate coated with each of anti-TNF-α and anti-IL-6 antibodies, and then left while shaking at room temperature for 2 hours and 30 minutes. Thereafter, the sample was discarded, washed 4 times with a wash buffer provided from the kit, and then 100 μL of the biotin-binding secondary antibodies was reacted for 1 hour. Then, it was washed 4 times with a washing buffer, 100 μL of streptavidin solution was added thereto, left while shaking at room temperature for 45 minutes, and washed again 4 times with a washing buffer. After 100 μL of TMB One-step substrate was added thereto and left for 30 minutes, 50 μL of a reaction termination solution was added thereto, and then 450 nm absorbance was measured by a spectrophotometer.
Experimental for TNF-α: as §3

`CO/C1=C\C(C)=C\[C@@H](C)[C@@H](O)[C@@H](C)C/C(C)=C/C=C/[C@H](OC)[C@@H]([C@@H](C)[C@@H](O)[C@H](C)[C@@]2(O)C[C@@H](O)[C@H](C)[C@@H](C(C)C)O2)OC1=O` [Baf-A1, bafilomycin A-1]: the β-amyloid protein aggregates result in series [1] (setting [7]) is “increased”. Further, the Huntington protein aggregates entry in series [2] (setting [7]) is recorded as “increased”.

In the case of `CN(C)CCCN1c2ccccc2Sc2ccc(Cl)cc21` [CP, chloropromazine], the “effect of the alloferon D-form peptides on autophagic flux” value in the series with cortical nerve cells [3] is given as “not changed”.

Turning to `CCN(CC)CCCC(C)Nc1ccnc2cc(Cl)ccc12` (centres unmarked) [CQ, chloroquine], the “number and size of LC3 puncta” value with H4 cell line (GL-H4) is “significantly increased”. The “lysotracker fluorescence intensity compared to the control” value in the series on cortical nerve cells [4] (50 μM CQ alone, 4 hours) is “decreased”.

On to `CC(C)[C@@H](NC(=O)CNC(=O)[C@H](N)Cc1c[nH]cn1)C(=O)N[C@H](CO)C(=O)NCC(=O)N[C@H](Cc1c[nH]cn1)C(=O)NCC(=O)N[C@H](CCC(N)=O)C(=O)N[C@H](Cc1c[nH]cn1)C(=O)NCC(=O)N[C@@H](C(=O)N[C@H](Cc1c[nH]cn1)C(=O)NCC(=O)O)C(C)C` [alloferon D-form peptides] (H-[dH]G[dV][dS]G[dH]G[dQ][dH]G[dV][dH]G-OH; N-terminus and C-terminus assumed), for which, in the series on IL-6, the “changes in IL-6 in plasma compared to the control” value is on record as “not observed”. In addition, the “amount of changes in the body weights of mice” value in series [5] was “did not change”. In the series on TNF-α, the “changes in TNF-α in plasma compared to the control” value is reported as “not observed”.

For `[Zn]` [zinc], the “lysotracker fluorescence intensity decreased by 50 μM CQ” value with cortical nerve cells [4] (20 μM peptide or 25 μM zinc + 50 μM chloroquine, 4 hours (FIG. 3B)) is “recovered”. The “β-amyloid protein aggregates increased by Baf-A1 (fluorescence)” value in series [1] (100 nM bafilomycin A1 + 2 or 20 μM peptide or 25 μM zinc, 12 hours (FIG. 7A)) is “decreased”. The “β-amyloid aggregates increased by Baf-A1 (western blot)” value in [1] (100 nM bafilomycin A1 + peptide or 25 μM zinc, 12 hours (FIG. 7B)) is recorded as “decreased”. Besides, the “β-amyloid protein aggregates compared to the control group” value in series [1] (setting [8]) is recorded as “no change”. Besides, the “Huntington protein aggregates increased by Baf-A1” value in [2] (100 nM bafilomycin A1 + 20 μM peptide or 25 μM zinc, 12 hours (FIG. 8)) is “decreased”. Moreover, the “Huntington protein aggregates compared to the control” value in series [2] (setting [8]) is given as “no change”.

As usually defined, the half-life is how long it takes for the measured level to halve. A lower half-life goes with rapid decline. “HGVSGHGQHGVHG [alloferon L-form peptides]”: the “degradation / stability in plasma” value in series [6] (mouse plasma, 10 μM, 37° C., 0-90 minutes) is “degraded from an early time in plasma”. Moreover, the half-life in series [6] (mouse, plasma) was 51.8 min.

Consider methyl-beta-cyclodextrin [MβCD], for which, in the series on cortical nerve cells [3], the “effect of the alloferon D-form peptides on autophagic flux” value is recorded as “not changed”.
